Experimental findings from patent publication US10125183B2, “Decoy peptides inhibiting binding of AMIGO2 and 3-phosphoinositide-dependent kinase 1” (Curacle Co., Ltd., priority 2015, dated 2018) are described below.

For experiment [1], the system named is HUVECs. In words: HUVEC cell viability with or without VEGF. In kind it is cell-based, human. Particulars: in the presence or absence of VEGF. The method, then: Endothelial progenitor cells (EPC) were isolated from human umbilical cord blood as previously described (Maeng et al., 2009). Briefly, human umbilical cord blood samples (approximately 50 mL each) were collected from fresh placentas with attached umbilical cords by gravity flow. Human umbilical vein endothelial cells (HUVECs) were isolated from human umbilical cord veins using collagenase as described previously (Marin et al., 2001), and cells from passages three to six were used. HUVECs were cultured on 2% gelatin-coated dishes at 37° C. in a 5% CO2-humidified atmosphere using M199 medium (HyClone) containing 20% fetal bovine serum (FBS), 100 U/mL penicillin, 100 μg/mL streptomycin, 3 ng/mL bFGF (Upstate Biotechnology), and 5 U/mL heparin.
The PTD-A2 of FITC-linker-YGRKKRRQRRR-GKRVVFLEPLKDTA (SEQ ID NO: 37) (decoy peptide) and the control peptide (FITC-linker-YGRKKRRQRRR-GRVKTDFLAVPEKL (SEQ ID NO: 38)) (Con-pep) were obtained from Peptron. The experiment was performed using 5 μM concentration in vitro, 4 mg/kg was used for an animal experiment. Peptide treated HUVECs were incubated with serum-free M199 medium at 37° C.

Experiment [2] has as its system Akt. Description: Endogenous Akt signaling in AMIGO2 siRNA-transfected HUVECs. In kind it is cell-based, human. As for the experimental part:
(§1) HUVECs were transfected with scrambled (control) and human AMIGO2 siRNAs using Lipofectamine® (Invitrogen) for 3 h, and cells were assayed 48 h after transfection. Human AMIGO2 siRNA was designed by Invitrogen using the following sequences: 5′-[…]-3′ (SEQ ID NO: 8) and 5′-[…]-3′ (SEQ ID NO: 9). HUVECs were transfected with EGFP-tagged plasmids using Lipofectamine® LTX and PLUS™ (Invitrogen) for 2 h, and cells were assayed 24 h after transfection.

Experiment [3] relates to HUVECs. Description: FAK immunostaining, F-actin staining and apoptosis markers in siRNA-transfected HUVECs. In kind it is cell-based, human. The method, then: as §1
HUVECs were fixed in 3.7% formaldehyde for 10 min and permeabilized with 0.1% Triton X-100 on the ice. Cells were labeled with anti-FAK antibody (Santa Cruz Biotechnology), anti-PDK1 antibody (Cell Signaling Technology), anti-Akt antibody (Cell Signaling Technology), and anti-AMIGO2 antibody (Abcam) for 2 h at room temperature or overnight at 4° C. Afterwards, the cells were incubated with Alexa 488 and Alexa 546 secondary antibodies (Invitrogen) for 60 min at room temperature, and were then examined under a confocal microscope (LSM 700 META; Carl Zeiss).

Experiment [4] relates to HUVECs. In words: EC adhesion assay. In kind it is cell-based, human. To be noted: siRNA-transfected HUVECs. As for the experimental part: as §1
HUVECs transfected with siRNA were trypsinized and washed twice in phenol-free M199. Prior to seeding, a 96-well plate was coated with 2% gelatin, fibronectin (3 μg/ml in PBS), and collagen type I (10 μg/ml in PBS), and incubated at 37° C. for 1 h in a humidified incubator. Prior to the initiation of the experiments, the wells were rinsed twice with PBS. HUVECs were labeled with calcein AM, and 1.5×10^4 cells were seeded into each well of the 96-well plates. Cells were incubated for 1 h at 37° C., and non-adherent, calcein-labeled cells were removed by four washes. M199 containing 20% FBS was added to the cells in each well, and the fluorescence was measured (maximum absorbance at 494 nm and maximum emission at 517 nm) using a fluorescein filter set by FLUOstar Omega (BGM LABTECH).

For experiment [5], the system named is AMIGO2. Description: In vivo siRNA injection and analysis of hyaloid vessels and retinas. Set-up: species or system mouse. The method, then: The sequence 5′-[…]-3′ (SEQ ID NO: 28) (mouse AMIGO2 siRNA, Dharmacon) was mixed with the TransIT®-QR Starter Kit (Mirus), and subcutaneously injected to each mouse (5 μg/P3.5 mouse) (Behlke, 2006; Bonifazi et al., 2010; Inaba et al., 2012; Mammoto et al., 2009). Hyaloid vessels and retinas were prepared as previously described (Lobov et al., 2005). After 2 days, the differences of protein change, retina, and hyaloid vessels were analyzed.

Experiment [6] has as its target T1, PH domain of PDK1 (Homo sapiens, UniProt O15530).
T1 construct: the purified His-tagged PH domain proteins were incubated with Ni^2+-NTA resins; made in house; host or cells: Escherichia coli BL21
T1 sequence (O15530 409-556): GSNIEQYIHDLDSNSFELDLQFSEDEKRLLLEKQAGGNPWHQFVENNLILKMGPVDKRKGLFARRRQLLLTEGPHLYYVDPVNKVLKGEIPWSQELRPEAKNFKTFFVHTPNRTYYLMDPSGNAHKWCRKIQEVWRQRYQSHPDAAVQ
Description: Pull-down assay and Far-western analysis of truncated AMIGO2 CD mutants. In kind it is binding. To be noted: purified GST-tagged proteins. As for the experimental part: GST-CD, 420-484, 420-474, 420-464 and 420-454 were prepared with vector plasmids of pGEX 4T1 and pET32a followed by the preparation of His-PH.BamH1 (5′-[…]-3′) (SEQ ID NO: 29) and Xho1 (5′-[…]-3′ (SEQ ID NO: 30), CD; 5′-[…]-3′ (SEQ ID NO: 31), 420-484; 5′-[…]-3′ (SEQ ID NO: 32), 420-474; 5′-[…]-3′ (SEQ ID NO: 33), 420-464; and 5′-[…]-3′ (SEQ ID NO: 34), 420-454) were used, and BamH1 (5′-[…]-3′ (SEQ ID NO: 35)) and Xho1 (5′-[…]-3′ (SEQ ID NO: 36)) were used for preparing His-PH. The proteins were expressed in Escherichia coli BL21, and purified with glutathione-Sepharose 4B resin and Ni2+-NTA-agarose.
GST and His-fused proteins (1.5 mg/ml:1.5 mg/ml) were incubated for 2 h at 4° C., immobilized on Ni^2+-NTA resin or glutathione-Sepharose 4B beads, and incubated for 30 min. Proteins were then eluted with elution buffer (25 mM NaPi, 300 mM NaCl, 5 mM β-mercaptoethanol, 500 mM imidazole, pH 7.5), western blot was performed with anti-GST and His antibodies.
Far-western analysis was performed as previously described (Wu et al., 2007). Briefly, purified GST-tagged proteins (1 μg) were loaded and separated, and then transferred to PVDF membranes. The membranes were denatured and renatured, incubated with purified His-tagged PH domain proteins (10 μg), and then detected with anti-His antibody.

Setting [7] is: subcutaneous injection, 5 μg/P3.5 mouse, after 2 days.

Where no end group is shown, it is not given here.

Consider “5′-UUAGGAUGCCCUCAGCUAUCACUGC-3′ (SEQ ID NO: 8) and 5′-AUUGUUGUAAAGCAGAAGCACUUCC-3′ (SEQ ID NO: 9) [AMIGO2 siRNA]”, for which, in experiment [1], the “cell viability of siRNA-transfected HUVECs” value is “decreased”. Moreover, in experiment [2], the “Akt phosphorylation (Thr308 and Ser473)” value is on record as “reduced”. Further, in experiment [3], the “active caspase-3 and FAK fragments” value was “detected”; the “expression of FAK (immunostaining)” value is on record as “low”. Further, the F-actin depolymerization result in experiment [3] (rhodamine-phalloidin staining) is given as “exhibited F-actin depolymerization”. The “adhesion on ECM substrates (gelatin, fibronectin, collagen type I)” value in experiment [4] was “reduced”.
“5′-UUGUACAAAAGAUCUCGCUGA-3′ (SEQ ID NO: 28) [AMIGO2-specific siRNA]”: the “Akt phosphorylation in hyaloid vessels and retinas” value in experiment [5] (Amigo2-depleted mice) is reported as “decreased”. Also, the “expression of AMIGO2 in vivo” value in experiment [5] (subcutaneous injection, 5 μg/P3.5 mouse) was “decreased”. Further, in experiment [5] (setting [7]), the hyaloid vessel structure entry is reported as “significant decreases”; the “retinal vessel growth and vascular areas” value is reported as “reduced”.
Regarding “420-474: purified GST-tagged truncated mutant of the AMIGO2 cytosolic domain, residues 420-474 (TPCPCKCKTKRQKNMLHQSNAHSSILSPGPASDASADERKAGAGKRVVFLEPLKD; cysteine pairing not given here; also: GST-tagged)”, in experiment [6], the “direct interaction with purified His-PDK1 PH” value (shortened to “direct interaction”) is “directly interacted”.

B1: 420-484: purified GST-tagged truncated mutant of the AMIGO2 cytosolic domain, residues 420-484 (protein)
chain: TPCPCKCKTKRQKNMLHQSNAHSSILSPGPASDASADERKAGAGKRVVFLEPLKDTAAGQNGKVR
modifications: also: GST-tagged
For the molecule B1, the “direct interaction” value in experiment [6] is recorded as “directly interacted”.

B2: GST-tagged AMIGO2^CD: purified GST-tagged cytosolic domain of AMIGO2 (420-522aa) (protein)
chain: TPCPCKCKTKRQKNMLHQSNAHSSILSPGPASDASADERKAGAGKRVVFLEPLKDTAAGQNGKVRLFPSEAVIAEGILKSTRGKSDSDSVNSVFSDTPFVAST
modifications: left off: a dimerising Fc or GST
As to B2, the “direct interaction” value in experiment [6] is given as “directly interacted”.
